Laboratory results taken from PubChem BioAssay (NCI).
Values joined by “and” are separate entries in the source; they are usually repeats but may differ in a detail not shown here. Equal values may be shown once.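 The compound was tested at five concentrations on cells cultured in 96-well plates, with a 48-hour exposure period. Abbreviation: GI50, concentration required for 50% inhibition of growth. At the TGI there is no net growth.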

Legend:
Assay in all cases: NCI anticancer screen, dose series, 48 h
[1] = tested on: BT-549 breast
[2] = tested on: HCT-116 colon
[3] = tested on: MALME-3M melanoma
[4] = tested on: MCF7 breast
[5] = tested on: NCI-H460 lung
[6] = tested on: PC-3 prostate
[7] = tested on: RPMI-8226 leukemia
[8] = tested on: SF-295 CNS
[9] = tested on: SK-MEL-28 melanoma
[10] = tested on: SR leukemia

Row | SMILES | GI50 [1] [µM] | TGI [1] | GI50 [2] [µM] | TGI [2] [µM] | GI50 [3] [µM] | TGI [3] [µM] | GI50 [4] [µM] | TGI [4] [µM] | GI50 [5] | TGI [5] | GI50 [6] [µM] | TGI [6] [µM] | GI50 [7] | TGI [7] | GI50 [8] [µM] | TGI [8] | GI50 [9] | TGI [9] | GI50 [10] [µM] | TGI [10]
1 | CC#CC(=O)N1CC[C@@H](n2c(=O)n(-c3ccc(Oc4ccccc4)cc3)c3c(N)ncnc32)C1 | 14.5 | 55 µM | 24.8 | 98.4 | 18 | > 100 | 23.5 | > 100 | 33 µM | > 100 µM | 29.1 | > 100 | 14.7 µM | 66.3 µM | 29.5 | > 100 µM | 35.8 µM | > 100 µM | 14.3 | > 100 µM
2 | Nc1nc(-c2ccc(Cl)cc2)cc(-c2ccccc2)c1-c1nc2ccccc2o1 | 13.5 | 28.3 µM | 3.21 | 9.17 | 10.3 | 33.4 | 3.1 | > 100 | 3.98 µM | > 100 µM | 4.62 | 16.8 | 6.9 µM | 23 µM | 15 | 35.6 µM | 15.2 µM | 34 µM | 3.37 | 8.97 µM
3 | C=C(C)[C@@H]1CC[C@]2(C(N)=O)CC[C@]3(C)[C@H](CC[C@@H]4[C@@]5(C)C/C(=C/c6cccnc6)[C@H](O)C(C)(C)[C@@H]5CC[C@]43C)[C@@H]12 | 6.36 | > 100 µM | 2.22 | > 100 | 4.91 | > 100 | 2.68 | > 100 | 4.22 µM | > 100 µM | 2.94 | > 100 | 2.5 µM | 48.3 µM | 3.75 | > 100 µM | 6.14 µM | > 100 µM | 4.31 | > 100 µM
4 | CCCCCC/C=C1\CCC(CN(C)C)C1=O (stereo not drawn) | – | 53.1 µM | – | 9.55 | – | 20.7 | – | 14.7 | – | 35.1 µM | – | 24 | – | 4.7 µM | – | 27 µM | – | 12 µM | – | 11.7 µM
5 | COc1cc(C)c(NC(=O)CN(C)C)cc1Nc1nc(Nc2cccc(F)c2C(N)=O)c2cc[nH]c2n1 | 4.35 | 18.9 µM | 0.686 | 4.31 | 1.91 | 7.47 | 0.0138 | 2.9 | 0.604 µM | 4.49 µM | 2.21 | 7.56 | 2.23 µM | 7.99 µM | 2.13 | 11.1 µM | 2.68 µM | 9.62 µM | 0.00977 | 2.89 µM
6 | CCN1CCN(c2ccc(Nc3ncc4ccc5ncn(C(C)C)c5c4n3)nc2)CC1 | 0.218 | 0.687 µM | 0.0312 | 0.55 | 0.134 | 1.69 | < 0.0109 | 0.848 | 0.0777 µM | 0.68 µM | 0.107 | 1.36 | < 0.0324 µM | 1.45 µM | 0.224 | 0.794 µM | 0.2 µM | 1.45 µM | 0.0402 | –
7 | O=S(=O)(CCCCl)SCCCCl | – | 28.1 µM | – | 51.1 | – | > 83.8 | – | 52.5 | – | > 100 µM | – | > 100 | – | 64.1 µM | – | > 93.4 µM | – | > 100 µM | – | 60.1 µM
8 | Cn1c(=N)n[n+]([O-])c2ccccc21 | – | 3.27 µM and 3.46 µM | – | > 100 | – | 6.15 | – | 5.32 | 2.59 µM and 20 µM | 4.53 µM and 37.5 µM | – | > 100 | 1.99 µM and 0.574 µM | 5.19 µM and 7.67 µM | – | 4.49 µM and 15.2 µM | 2.42 µM and 7.01 µM | 5.88 µM and 15.6 µM | 3.87 | 14.7 µM and 9.32 µM
9 | C=C(CN(C)C)C(=O)c1ccc(Oc2ccccc2)cc1 | – | 12.9 µM | – | 5.32 | – | 9.18 | – | 15.6 | – | 51.6 µM | – | 11.6 | – | > 21.8 µM | – | 38.3 µM | – | 17.4 µM | – | 4.24 µM
